# How the values were obtained:
# [1] = Rat pharmacokinetics assay; type: in vivo, Sprague-Dawley (SD) rats; settings: for AUC: read-out: Area under curve AUC; for half-life: read-out: Half-life T1/2 (converted); for MRT: read-out: Residence time MRT
# Experimental: Test Example 4. Rat pharmacokinetics assay of the compounds of Example 2, Example 3, Example 5, Example 9, Example 10, Example 11, and Example 13 of the present invention.
# Sprague-Dawley (SD) rats were used as test animals. The plasma concentrations at various times were determined by LC/MS/MS after intragastric administration of compounds of Example 2, Example 3, Example 5, Example 9, Example 10, Example 11, and Example 13, and intravenous administration of the compound of Example 11 to the rats. The pharmacokinetic behavior of the present compounds in rats was studied, and the pharmacokinetic features were evaluated.
# Thirty-two (32) healthy adult SD rats (half female and half male) were evenly designated into 8 groups (4 for each group). The animals were purchased from Shanghai Super B&K Laboratory Animal Corp. Ltd (laboratory animal production Certificate No. SCXK (HU)2008-0016).
# An appropriate amount of sample was weighed, and added with 0.5% CMC-Na to form a 1 mg/ml suspension upon ultrasonic treatment.
# Appropriate amounts of drugs were weighed, and dissolved with 0.5 ml DMSO and 0.5 ml of Tween 80. Saline solution was added to the final volume.
# Thirty-two (32) SD rats (half female and half male) were evenly designated into 8 groups (4 for each group), and administered by oral gavage or intravenous injection (i.v.) (oral gavage at a dosage of 10 mg/kg or 30 mg/kg, and i.v. at a dosage of 5.0 mg/kg), respectively, at a volume of 10 ml/kg after fasting overnight.
# 0.1 ml of blood was sampled before, and 0.5, 1, 2, 4, 6, 8, 11, and 24 hours after administration, collected in a heparinized test tube, and centrifuged at 3500 rpm for 10 minutes to separate the plasma, which was stored at −20° C. The animals were allowed access to feed 2 hours after administration.
# The content of the test compound in the plasma of rats after administration of the compound by oral gavage was determined by LC/MS/MS.
# [2] = Beagle pharmacokinetics assay; type: in vivo, beagles; settings: for AUC: read-out: Area under curve AUC; for half-life: read-out: Half-life T1/2 (converted); for MRT: read-out: Residence time MRT
# Experimental: Test Example 6. Beagle Pharmacokinetics Assay of Example 11 of the Present Invention
# Beagles were used as test animals. The plasma concentrations at various times were determined by LC/MS/MS after intragastric administration of the compound of Example 11, and intravenous administration of the compound of Example 11 to beagles. The pharmacokinetic behavior of the present compound in beagles was studied, and the pharmacokinetic features were evaluated.
# Eight (8) healthy beagles (half female and half male) were evenly designated into 2 groups. The animals were purchased from SuzhouXishan Zhongke Laboratory Animal Corp. Ltd.
# An appropriate amount of sample was weighed, and added with 0.5% CMC-Na to form a 1.0 mg/ml suspension upon ultrasonic treatment;
# Appropriate amounts of drugs were weighed, and dissolved with 5 ml DMSO and 5 ml of Tween 80. Saline solution was added to the final volume.
# Eight (8) healthy beagles (half female and half male) were evenly designated into 2 groups, and administered by oral gavage or intravenous injection (i.v.) (oral gavage at a dosage of 5 mg/kg with an administration volume of 5 ml/kg, and i.v. at a dosage of 2 mg/kg with an administration volume of 2 ml/kg) after fasting overnight.
# 1.0 ml of blood was sampled from the foreleg vein before, and 0.25, 0.5, 1, 2, 4, 6, 8, 12, and 24 hours after oral administration, collected in a heparinized test tube, and centrifuged at 3500 rpm for 10 minutes to separate the plasma, which was stored at −20° C. The animals were allowed access to feed 2 hours after administration. Blood was sampled before, and 5 minutes, 0.25, 0.5, 1, 2, 4, 6, 8, 12, and 24 hours after intravenous administration, and treated the same as above. The content of the test compound in the plasma of beagles after administration of the compound by oral gavage and intravenous injection was determined by LC/MS/MS.
# [3] = target: rabbit GnRHr (Oryctolagus cuniculus, UniProt Q5U7L3); test: Rabbit GnRHr inhibitory activity assay, rabbit GnRHr/CHO stably transfected cell lines; type: cell-based; settings: rabbit GnRHr/CHO cells, GnRH polypeptide stimulant, Fluo-4
# Experimental: Test Example 3. Rabbit GnRHr Inhibitory Activity Assay of the Present Compounds
# This assay was used to determine the inhibition effect of the present compounds on the activity of rabbit GnRHr protein expressed by rabbit GnRHr/CHO stably transfected cell lines.
# A mammalian expression vector containing the rabbit GnRHr gene was transferred into CHO cells by adding Lipofectamine® LTX reagent containing Plus™. Antibiotics were added the next day for screening to pick out the monoclonal cell lines.
# The rabbit GnRHr/CHO stably transfected cell lines were inoculated in 96-well plates with an inoculation density of 25,000 cells/well. The culture medium was removed the next day, and loading buffer containing Fluo-4 dye was added to the plate (100 μL/well) and incubated for 30 minutes at 37° C. The plate was moved to room temperature and equilibrated for 10 minutes. Each compound was diluted with DMSO to seven concentration gradients of 100 μM, 10 μM, 1 μM, 0.1 μM, 0.01 μM, 0.001 μM, 0.0001 μM. Then, 1 μl of each gradient was added to each well and incubated for 10 minutes at room temperature. After automated addition of 50 μL of GnRH polypeptide stimulant solution, the value was immediately detected at 494/516n M by a microplate reader (flexstation 3). IC50 values of the compounds were calculated by software from different fluorescence signals at various corresponding concentrations.
# The inhibitory activity of the present compounds on rabbit GnRHr was determined by the above assay, and IC50 values are shown in Table 1.
# [4] = tested on: rabbit endometriosis model; test: In vivo pharmacodynamics test in rabbit endometriosis model
# Experimental: (§1) Fifteen (15) healthy New Zealand rabbits (female) were evenly designated into 3 groups.
# (§2) Rabbits were adaptive fed and quarantined for seven days, and subcutaneously injected with 30 μg/kg of estradiol benzoate once daily for two days before surgery. When the model was established, rabbits were anesthetized with 3% sodium pentobarbital, and laparotomized sterilely. Then, one side of the uterus was separated and ligated with the uterine mesorectum vessel. Then, a section of the uterus was cut off and put into a warm saline dish, and then dissected longitudinally and the myometrium and endometrium were separated. A section of endometrium (about 0.5 cm by0.5 cm) was seamed to the abdominal wall rich in blood vessels with the intimal surface facing toward the abdominal cavity. Three weeks after endometrium planting, the rabbits were laparotomized to check graft intimal size. […] Each group was administered by oral gavage once a day in a volume of 5 ml/kg, continuously for 28 days after successful modeling. Ultimately, the rabbit was weighed and the volume of ectopic endometrium was measured to evaluate the effect of the present compound on the endometrial activity.
# [5] = as above; settings: female, New Zealand, rabbit, in vivo, po
# Experimental: as §1, §2
# [6] = both sexes, Sprague-Dawley, plasma, iv, i.v. 5 mg/kg
# [7] = both sexes, Sprague-Dawley, plasma, oral 10 mg/kg
# [8] = both sexes, dog, plasma, iv, i.v. 2 mg/kg
# [9] = both sexes, dog, plasma, oral 5 mg/kg
# Chain of rabbit GnRHr (Q5U7L3 1-328): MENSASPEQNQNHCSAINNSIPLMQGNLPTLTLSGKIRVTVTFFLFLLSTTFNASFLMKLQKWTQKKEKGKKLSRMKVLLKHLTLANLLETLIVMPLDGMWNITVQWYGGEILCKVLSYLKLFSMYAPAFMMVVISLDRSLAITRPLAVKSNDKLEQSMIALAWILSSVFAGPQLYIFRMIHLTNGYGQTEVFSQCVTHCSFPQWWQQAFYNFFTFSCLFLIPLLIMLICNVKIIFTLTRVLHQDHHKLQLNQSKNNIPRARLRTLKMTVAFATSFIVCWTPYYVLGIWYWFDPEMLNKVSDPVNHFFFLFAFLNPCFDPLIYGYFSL
smiles,measurement,setting,value
"CONC(=O)Nc1ccc(-n2nc3c(c2CN(C)C)c(=O)n(-c2ccc(OC)nn2)c(=O)n3Cc2c(F)cccc2F)cc1 [Example 11, 1-(4-(7-(2,6-difluorobenzyl)-3-((dimethylamino)methyl)-5-(6-methoxypyridazin-3-yl)-4,6-dioxo-4,5,6,7-tetrahydro-2H-pyrazolo[3,4-d]pyrimidin-2-yl)phenyl)-3-methoxyurea]",AUC,[1]; [6],2670 ± 1240 ng·h/mL
same,half-life,[1]; [6],1.59 ± 0.5 h
same,MRT,[1]; [6],2.25 ± 0.06 h
same,Vd/F,"[1]; both sexes, Sprague-Dawley, plasma, oral 10 mg/kg, read-out: Apparent volume of distribution Vz/F",3.29 ± 1.51 L/kg
same,AUC,[1]; [7],4090 ± 1440 ng·h/mL
same,CL/F,"[1]; both sexes, Sprague-Dawley, plasma, oral 10 mg/kg, read-out: Clearance rate CL/F",44.2 ± 13.4 mL/min/kg
same,half-life,[1]; [7],0.84 ± 0.18 h
same,Cmax,"[1]; both sexes, Sprague-Dawley, plasma, oral 10 mg/kg, read-out: Plasma concentration Cmax",2440 ± 873 ng/mL
same,MRT,[1]; [7],1.56 ± 0.34 h
same,Apparent volume of distribution Vz/F,[1]; i.v. 5 mg/kg,4.929 ± 2.39 L/kg
same,Clearance rate CL/F,[1]; i.v. 5 mg/kg,35.4 ± 12.5 mL/min/kg
same,AUC,[2]; [8],2300 ± 213 ng·h/mL
same,half-life,[2]; [8],3.34 ± 0.4 h
same,MRT,[2]; [8],4.02 ± 0.5 h
same,Vd/F,"[2]; both sexes, dog, plasma, oral 5 mg/kg, read-out: Apparent volume of distribution Vz/F",7.25 ± 4.37 L/kg
same,AUC,[2]; [9],5940 ± 1340 ng·h/mL
same,CL/F,"[2]; both sexes, dog, plasma, oral 5 mg/kg, read-out: Clearance rate CL/F",14.7 ± 4.2 mL/min/kg
same,half-life,[2]; [9],5.37 ± 1.52 h
same,Cmax,"[2]; both sexes, dog, plasma, oral 5 mg/kg, read-out: Plasma concentration Cmax",1090 ± 350 ng/mL
same,MRT,[2]; [9],6.4 ± 2.82 h
same,Apparent volume of distribution Vz/F,[2]; i.v. 2 mg/kg,4.235 ± 0.706 L/kg
same,Clearance rate CL/F,[2]; i.v. 2 mg/kg,14.6 ± 1.3 mL/min/kg
same,IC50,[3],570 pM
same,inhibition for the ectopic endometrial volume,[4]; 10 mg/kg oral once a day for 4 weeks,not obvious
same,growth of ectopic endometrium,"[4]; 30 mg/kg oral once a day for 4 weeks, vs 0.5% CMC-Na control",significantly inhibited
same,NOAEL at 28 days,[5],30 mg/kg

# Source: patent US10344034B2, “Pyrazolopyrimidone or Pyrrolotriazone derivatives, method of preparing same, and pharmaceutical applications thereof” (Shanghai Hengrui Pharmaceutical Co., Ltd., priority 2013, dated 2019)
